Results as given in ChEMBL document CHEMBL1139293 (Bioorg Med Chem Lett, 2009).
Calls of active or inactive are those of the source. No cut-off for these calls is given here.

Key:
[1] = target: Neuronal acetylcholine receptor subunit alpha-7 (Homo sapiens, UniProt P36544); assay: Displacement of [3H]MLA from alpha7 nAChR/5HT3A receptor expressed in HEK293 cells; assay type: cell-based
[2] = target: T1, Neuronal acetylcholine receptor; alpha3/beta4 (Homo sapiens, UniProt P30926+P32297); assay: Agonist activity at alpha3beta4 nAChR expressed in HEK293 cells by FLIPR membrane potential assay; assay type: functional, cell-based
[3] = target: T1, Neuronal acetylcholine receptor; alpha3/beta4; assay: Agonist activity at alpha3beta4 nAChR expressed in HEK293 cells at 300 uM by FLIPR membrane potential assay; assay type: functional, cell-based
[4] = target: T1, Neuronal acetylcholine receptor; alpha3/beta4; assay: Agonist activity at alpha3beta4 nAChR expressed in HEK293 cells at 1 mM by FLIPR membrane potential assay; assay type: functional, cell-based

Chain of Neuronal acetylcholine receptor subunit alpha-7 (P36544 23-502 limits assumed): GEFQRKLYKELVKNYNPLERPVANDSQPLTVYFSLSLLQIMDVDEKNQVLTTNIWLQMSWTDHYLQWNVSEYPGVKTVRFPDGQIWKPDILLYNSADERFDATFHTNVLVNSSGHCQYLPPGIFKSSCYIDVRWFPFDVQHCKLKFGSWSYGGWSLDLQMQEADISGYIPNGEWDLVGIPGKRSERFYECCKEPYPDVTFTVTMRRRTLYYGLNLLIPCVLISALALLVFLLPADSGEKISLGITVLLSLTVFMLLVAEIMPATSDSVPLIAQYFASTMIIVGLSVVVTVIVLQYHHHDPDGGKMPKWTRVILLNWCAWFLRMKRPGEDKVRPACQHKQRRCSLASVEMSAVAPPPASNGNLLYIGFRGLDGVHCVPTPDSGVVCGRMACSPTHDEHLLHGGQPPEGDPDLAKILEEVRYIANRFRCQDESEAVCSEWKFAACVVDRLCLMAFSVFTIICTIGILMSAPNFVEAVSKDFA
T1 sequence (P30926 whole entry): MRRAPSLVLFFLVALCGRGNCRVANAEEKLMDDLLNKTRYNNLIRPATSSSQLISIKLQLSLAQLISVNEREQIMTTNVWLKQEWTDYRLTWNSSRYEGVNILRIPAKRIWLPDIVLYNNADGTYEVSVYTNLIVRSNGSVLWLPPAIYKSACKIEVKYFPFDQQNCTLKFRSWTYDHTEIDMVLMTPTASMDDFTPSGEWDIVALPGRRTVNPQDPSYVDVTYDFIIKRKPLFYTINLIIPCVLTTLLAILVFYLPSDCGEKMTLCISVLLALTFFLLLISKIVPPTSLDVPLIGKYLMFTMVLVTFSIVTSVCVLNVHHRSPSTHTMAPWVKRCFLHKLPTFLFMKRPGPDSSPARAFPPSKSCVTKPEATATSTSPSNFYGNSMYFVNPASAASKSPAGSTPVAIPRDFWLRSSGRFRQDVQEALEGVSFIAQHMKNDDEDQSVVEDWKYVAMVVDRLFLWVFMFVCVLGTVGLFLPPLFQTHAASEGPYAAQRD
T1 sequence (P32297 whole entry): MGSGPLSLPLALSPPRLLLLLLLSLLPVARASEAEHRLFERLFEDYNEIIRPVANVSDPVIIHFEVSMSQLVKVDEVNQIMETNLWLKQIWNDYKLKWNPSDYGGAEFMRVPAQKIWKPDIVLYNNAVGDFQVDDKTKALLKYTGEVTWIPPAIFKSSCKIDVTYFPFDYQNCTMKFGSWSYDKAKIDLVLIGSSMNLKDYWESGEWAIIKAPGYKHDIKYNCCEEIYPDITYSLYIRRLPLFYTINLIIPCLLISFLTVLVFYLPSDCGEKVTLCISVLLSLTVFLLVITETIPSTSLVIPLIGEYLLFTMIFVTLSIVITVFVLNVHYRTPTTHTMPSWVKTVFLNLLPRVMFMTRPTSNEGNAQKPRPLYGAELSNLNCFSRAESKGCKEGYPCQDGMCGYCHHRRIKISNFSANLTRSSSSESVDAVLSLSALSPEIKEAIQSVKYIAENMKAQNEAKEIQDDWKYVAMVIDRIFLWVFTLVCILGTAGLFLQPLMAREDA

## CC(CCOC(=O)N(C)Cc1ccccc1)N(C)C (stereo not given)
[1]
  Ki: 1000 µM
  pKi: 3
[2]; read-out: EC50
  EC50: 6.7 µM

## CC(CCOC(=O)N(C)c1ccc(C#N)cc1)N(C)C (stereo not given)
[1]
  Ki: 1000 µM
  pKi: 3
[2]; read-out: EC50
  EC50: > 1000 µM
[2]; read-out: pEC50 (converted)
  EC50: 1000 µM
[3]
  Activity: Active

## CNC(=O)/C=C/CC(C)N(C)C (stereo not given)
[1]
  Ki: > 1000 µM
[2]; read-out: EC50
  EC50: 150 µM

## CN(C)C(=O)OCCC(CO)N(C)C (stereo not given)
[4]
  Activity: Active
[1]
  Ki: > 1000 µM
[2]; read-out: EC50
  EC50: > 3000 µM
[3]
  Activity: Active

## CCNC(=O)OCCC(C)N(C)C (stereo not given)
[1]
  Ki: > 1000 µM
[2]; read-out: EC50
  EC50: 55 µM

## CC(CCSC(=O)N(C)C)N(C)C (stereo not given)
[1]
  Ki: > 1000 µM
[2]; read-out: EC50
  EC50: 430 µM

## CC(CCCC(=O)N(C)C)N(C)C (stereo not given)
[1]
  Ki: > 1000 µM
[2]; read-out: EC50
  EC50: 1000 µM
[3]
  Activity: Active

## CC(CCNC(=O)N(C)C)N(C)C (stereo not given)
[4]
  Activity: Active
[1]
  Ki: > 1000 µM
[2]; read-out: EC50
  EC50: > 3000 µM

## CC(CCOC(N)=O)N(C)C (stereo not given)
[1]
  Ki: > 1000 µM
[2]; read-out: EC50
  EC50: 57 µM

## CC(C/C=C/C(=O)N(C)C)N(C)C (stereo not given)
[1]
  Ki: > 1000 µM
[2]; read-out: EC50
  EC50: 91 µM

## CC(CCOC(=O)N(C)c1ccccc1)N(C)C (stereo not given)
[1]
  Ki: 1000 µM
  pKi: 3
[2]; read-out: EC50
  EC50: 51 µM

## CC(CCOC(=O)NCCCc1ccccc1)N(C)C (stereo not given)
[1]
  Ki: > 1000 µM
[2]; read-out: EC50
  EC50: > 1000 µM
[2]; read-out: pEC50 (converted)
  EC50: 1000 µM
[3]
  Activity: Active

## CN(C)C(=O)OCCC(c1ccccc1)N(C)C (stereo not given)
[1]
  Ki: 1000 µM
  pKi: 3
[2]; read-out: EC50
  EC50: > 1000 µM
[2]; read-out: pEC50 (converted)
  EC50: 1000 µM
[3]
  Activity: Active

## CN(C)C(=O)OCCC(c1ccsc1)N(C)C (stereo not given)
[1]
  Ki: 1000 µM
  pKi: 3
[2]; read-out: EC50
  EC50: > 1000 µM
[2]; read-out: pEC50 (converted)
  EC50: 1000 µM
[3]
  Activity: Active

## CCCNC(=O)OCCC(C)N(C)C (stereo not given)
[1]
  Ki: > 1000 µM
[2]; read-out: EC50
  EC50: 95 µM

## CC(CCOC(=O)NCCO)N(C)C (stereo not given)
[1]
  Ki: > 1000 µM
[2]; read-out: EC50
  EC50: 300 µM

## CC(CCOC(=O)N(C)CCO)N(C)C (stereo not given)
[1]
  Ki: > 1000 µM
[2]; read-out: EC50
  EC50: 160 µM

## CC(CCOC(=O)N(C)c1ccc(Cl)cc1)N(C)C (stereo not given)
[1]
  Ki: 1000 µM
  pKi: 3
[2]; read-out: EC50
  EC50: 28 µM
[2]; read-out: pEC50 (converted)
  EC50: 31.6 µM

## CC(CCNC(=O)Nc1ccccc1)N(C)C (stereo not given)
[4]
  Activity: Active
[1]
  Ki: > 1000 µM
[2]; read-out: EC50
  EC50: > 3000 µM

## CC(CCOC(=S)N(C)C)N(C)C (stereo not given)
[1]
  Ki: > 1000 µM
[2]; read-out: EC50
  EC50: 53 µM
